From publication PMC6981637, “Tetrahydroquinoline-Isoxazole/Isoxazoline Hybrid Compounds as Potential Cholinesterases Inhibitors: Synthesis, Enzyme Inhibition Assays, and Molecular Modeling Studies” (International Journal of Molecular Sciences, 2019) come the findings set out here.

Experiment [1] addresses T1, BChE (from bovine serum) (Bos taurus, UniProt P32749).
T1 construct: purchased Sigma-Aldrich
As to the kind of experiment: BChE inhibitory activity (Ellman method). The settings on record: for IC50: average from three independent experiments ± SEM. The class given is biochemical.

The target of experiment [2] is AChE (from Electrophorus electricus) (Electrophorus electricus, UniProt O42275).
AChE (from Electrophorus electricus), sequence (O42275 24-633): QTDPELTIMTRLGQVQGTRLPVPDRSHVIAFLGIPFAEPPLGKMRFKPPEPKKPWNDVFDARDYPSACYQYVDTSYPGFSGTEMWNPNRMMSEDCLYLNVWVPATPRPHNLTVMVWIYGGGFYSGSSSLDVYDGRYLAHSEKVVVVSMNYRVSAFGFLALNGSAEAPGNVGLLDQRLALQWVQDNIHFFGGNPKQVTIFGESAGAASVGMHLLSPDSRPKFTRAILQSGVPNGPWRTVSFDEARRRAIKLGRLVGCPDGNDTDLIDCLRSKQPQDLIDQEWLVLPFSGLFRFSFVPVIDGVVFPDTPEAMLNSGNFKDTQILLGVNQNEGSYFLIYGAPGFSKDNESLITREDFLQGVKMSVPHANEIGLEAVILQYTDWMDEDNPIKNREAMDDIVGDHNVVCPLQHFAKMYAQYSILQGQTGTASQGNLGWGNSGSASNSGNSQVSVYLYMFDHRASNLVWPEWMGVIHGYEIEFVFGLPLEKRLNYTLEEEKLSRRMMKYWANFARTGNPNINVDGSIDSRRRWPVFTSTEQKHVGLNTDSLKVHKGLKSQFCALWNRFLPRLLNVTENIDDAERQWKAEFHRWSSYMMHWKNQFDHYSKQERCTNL
The mark [3] stands for this setting: Table 1, THQ–isoxazoline hybrids 5, read-out: IC50 BChE.
[4] abbreviates: Table 2, THQ–isoxazole hybrids 6, read-out: BChE (IC50).

Values joined by “and” are separate entries in the source; they are usually repeats but may differ in a detail not shown here. Identical values can stand only once. Like-named read-outs stand apart in the source and are kept apart here.

T1 sequence (P32749 29-602): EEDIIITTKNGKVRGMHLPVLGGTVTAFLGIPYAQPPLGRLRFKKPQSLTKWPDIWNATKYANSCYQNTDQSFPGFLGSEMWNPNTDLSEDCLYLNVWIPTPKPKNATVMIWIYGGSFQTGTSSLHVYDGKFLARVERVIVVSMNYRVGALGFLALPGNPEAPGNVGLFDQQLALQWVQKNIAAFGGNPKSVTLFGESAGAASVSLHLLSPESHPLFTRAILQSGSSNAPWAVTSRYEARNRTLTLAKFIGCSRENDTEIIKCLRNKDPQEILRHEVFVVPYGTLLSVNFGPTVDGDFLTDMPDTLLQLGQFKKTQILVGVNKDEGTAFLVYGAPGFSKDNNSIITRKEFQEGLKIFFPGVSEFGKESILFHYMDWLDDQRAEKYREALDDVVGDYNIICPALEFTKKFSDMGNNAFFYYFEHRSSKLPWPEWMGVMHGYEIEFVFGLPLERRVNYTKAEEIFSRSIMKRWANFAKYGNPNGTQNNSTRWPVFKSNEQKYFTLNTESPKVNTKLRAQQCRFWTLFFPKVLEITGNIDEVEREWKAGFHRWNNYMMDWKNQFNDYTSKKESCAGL

Turning to `O=C1CCCN1C1CCN(CC2CC(c3ccccc3)=NO2)c2ccccc21` (stereo not drawn) [5a, 3-phenyl-5-[(4-(2′-oxopyrrolidin-1′-yl)-3,4-dihydroquinolin-1(2H)-yl)-methyl]-4,5 dihydroisoxazole], the IC50 was 81.9 ± 0.04 µM in experiment [1] (setting [3]) and 77.37 ± 0.01 µM in experiment [2] (read-out: IC50 AChE). In experiment [2], this molecule returned an SI of 1.06.
For `COc1ccc2c(c1)C(N1CCCC1=O)CCN2CC1CC(c2ccc(OC)c(OC)c2)=NO1` (stereo not drawn) [5k, 3-(3,4-dimethoxyphenyl)-5-[(6-methoxy-4-(2′-oxopyrrolidin-1′-yl)-3,4-dihydroquinolin-1(2H)-yl)-methyl]-4,5-dihydroisoxazole], the IC50 in experiment [1] (setting [3]) was 255.82 ± 0.01 µM; in experiment [2] (read-out: IC50 AChE) it was 15.26 ± 0.02 µM. The molecule also showed an SI in experiment [2] of 16.8. Further, the “selectivity for inhibiting AChE” value in experiment [2] was “significant selectivity”.
As for `COc1ccc(C2=NOC(CN3CCC(N4CCCC4=O)c4cc(C)ccc43)C2)cc1` (stereo not drawn) [5f, 3-(4-methoxyphenyl)-5-[(6-methyl-4-(2′-oxopyrrolidin-1′-yl)-3,4-dihydroquinolin-1(2H)-yl)-methyl]-4,5-dihydroisoxazole], the IC50 in experiment [1] (setting [3]) was 23.36 ± 0.005 µM; in experiment [2] (read-out: IC50 AChE), 16.31 ± 0.01 µM. In addition, in experiment [2], the SI was determined as 1.43.
In the same order, the values of `COc1ccc(C2=NOC(CN3CCC(N4CCCC4=O)c4cc(C)ccc43)C2)cc1OC` (stereo not drawn) [5g, 3-(3,4-dimethoxyphenyl)-5-[(6-methyl-4-(2′-oxopyrrolidin-1′-yl)-3,4-dihydroquinolin-1(2H)-yl)-methyl]-4,5-dihydroisoxazole] are 31.49 ± 0.005 µM, 99.71 ± 0.01 µM and 0.32.
As to `COc1ccc2c(c1)C(N1CCCC1=O)CCN2Cc1cc(-c2cc(OC)c(OC)c(OC)c2)no1` (stereo not drawn) [6k, 3-(3,4,5-trimethoxyphenyl)-5-((6′-methoxy-4′-(2′’-oxopyrrolidin-1′’-yl)-3′,4′-dihydroquinolin-1′(2′H)-yl)methyl)isoxazole], the IC50 in experiment [1] (setting [4]) came to 73.26 ± 0.01 µM; in experiment [2] (read-out: AChE (IC50)) it was 20.19 ± 0.02 µM. The SI in experiment [2] was found to be 3.63.
As for `CCc1ccc2c(c1)C(N1CCCC1=O)CCN2Cc1cc(-c2cc(OC)c(OC)c(OC)c2)no1` (stereo not drawn) [6t, 5-((6′-ethyl-4′-(2′’-oxopyrrolidin-1′’-yl)-3′,4′-dihydroquinolin-1′(2′H)-yl)methyl)-3-(3,4,5-trimethoxyphenyl)isoxazole], the IC50 in experiment [2] (read-out: AChE (IC50)) amounted to 66.77 ± 0.01 µM.
Consider `COc1ccc(C2=NOC(CN3CCC(N4CCCC4=O)c4ccccc43)C2)cc1OC` (stereo not drawn) [5c, 3-(3,4-dimethoxyphenyl)-5-[4-((2′-oxopyrrolidin-1′-yl)-3,4-dihydroquinolin-1(2H)-yl)-methyl]-4,5-dihydroisoxazole], for which the IC50 in experiment [2] (read-out: IC50 AChE) came out at 100.65 ± 0.05 µM.
For the molecule `COc1ccc(-c2cc(CN3CCC(N4CCCC4=O)c4cc(Cl)ccc43)on2)cc1` (stereo not drawn) [6m, 5-((6′-chloro-4′-(2′’-oxopyrrolidin-1′’-yl)-3′,4′-dihydroquinolin-1′(2′H)-yl)methyl)-3-(4-methoxyphenyl)isoxazole], the IC50 in experiment [1] (setting [4]) stood at 18.42 ± 0.01 µM; in experiment [2] (read-out: AChE (IC50)), 13.27 ± 0.01 µM. This molecule also gave an SI in experiment [2] of 1.39.
As for `COc1ccc(-c2cc(CN3CCC(N4CCCC4=O)c4cc(C)ccc43)on2)cc1` (stereo not drawn) [6e, 3-(4-methoxyphenyl)-5-((6′-methyl-4′-(2′’-oxopyrrolidin-1′’-yl)-3′,4′-dihydroquinolin-1′(2′H)-yl)methyl)isoxazole], the IC50 in experiment [1] (setting [4]) turned out to be 79.81 ± 0.06 µM; in experiment [2] (read-out: AChE (IC50)), 30.43 ± 0.02 µM. The molecule further displayed an SI in experiment [2] of 2.62.
In the case of `COc1ccc(-c2cc(CN3CCC(N4CCCC4=O)c4cc(C)cc(Cl)c43)on2)cc1OC` (stereo not drawn) [6f, 5-((8′-chloro-6′-methyl-4′-(2′’-oxopyrrolidin-1′’-yl)-3′,4′-dihydroquinolin-1′(2′H)-yl)methyl)-3-(3,4-dimethoxyphenyl)isoxazole], the IC50 turned out to be 370.12 ± 0.03 µM in experiment [1] (setting [4]) and 54.71 ± 0.02 µM in experiment [2] (read-out: AChE (IC50)). For the same molecule, in experiment [2], the SI was determined as 6.76.
Take `COc1cc(C2=NOC(CN3CCC(N4CCCC4=O)c4cc(C)ccc43)C2)cc(OC)c1OC` (stereo not drawn) [5h, 5-[(6-methyl-4-(2′-oxopyrrolidin-1′-yl)-3,4-dihydroquinolin-1(2H)-yl)-methyl]-3-(3,4,5-trimethoxyphenyl)-4,5-dihydroisoxazole]: the figures for the IC50 in experiment [1] (setting [3]) and in experiment [2] (read-out: IC50 AChE) were 63.72 ± 0.001 µM and 37.41 ± 0.03 µM, respectively. Further, the SI in experiment [2] is listed as 1.70.
Turning to `CCc1ccc2c(c1)C(N1CCCC1=O)CCN2Cc1cc(-c2ccc(OC)cc2)no1` (stereo not drawn) [6r, 5-((6′-ethyl-4′-(2′’-oxopyrrolidin-1′’-yl)-3′,4′-dihydroquinolin-1′(2′H)-yl)methyl)-3-(4-methoxyphenyl)isoxazole], the IC50 in experiment [1] (setting [4]) is < 7.18 µM and 7.18 µM; in experiment [2] (read-out: AChE (IC50)) it was 18.83 ± 0.003 µM. The SI in experiment [2] is recorded as 0.38.
With `COc1ccc(-c2cc(CN3CCC(N4CCCC4=O)c4cc(OC)ccc43)on2)cc1` (stereo not drawn) [6i, 3-(4-methoxyphenyl)-5-((6′-methoxy-4′-(2′’-oxopyrrolidin-1′’-yl)-3′,4′-dihydroquinolin-1′(2′H)-yl)methyl)isoxazole], the IC50 in experiment [1] (setting [4]) is 213.22 ± 0.01 µM; in experiment [2] (read-out: AChE (IC50)), 84.51 ± 0.01 µM. For the same molecule, the SI in experiment [2] worked out at 2.52.
`COc1ccc2c(c1)C(N1CCCC1=O)CCN2Cc1cc(-c2ccccc2)no1` (stereo not drawn) [6h, 5-((6′-methoxy-4′-(2′’-oxopyrrolidin-1′’-yl)-3′,4′-dihydroquinolin-1′(2′H)-yl)methyl)-3-phenylisoxazole]: the IC50 in experiment [1] (setting [4]) was < 7.18 µM and 4.33 µM; in experiment [2] (read-out: AChE (IC50)), 52.76 ± 0.01 µM. For the same molecule, in experiment [1] (conclusions), the “selectivity against BChE” value was “more selective”. For the same molecule, the SI in experiment [2] amounted to 0.08.
For the molecule `COc1cc(Cl)c2c(c1)C(N1CCCC1=O)CCN2Cc1cc(-c2ccc(OC)c(OC)c2)no1` (stereo not drawn) [6j, 5-((8′-chloro-6′-methoxy-4′-(2′’-oxopyrrolidin-1′’-yl)-3′,4′-dihydroquinolin-1′(2′H)-yl)methyl)-3-(3,4-dimethoxyphenyl)isoxazole], the IC50 worked out at 149 ± 0.02 µM in experiment [1] (setting [4]) and 54.69 ± 0.01 µM in experiment [2] (read-out: AChE (IC50)). Further, the SI in experiment [2] was determined as 2.72.
In the same order, the values of `COc1cc(-c2cc(CN3CCC(N4CCCC4=O)c4ccccc43)on2)cc(OC)c1OC` (stereo not drawn) [6c, 3-(3,4,5-trimethoxyphenyl)-5-((4′-(2′’-oxopyrrolidin-1′’-yl)-3′,4′-dihydroquinolin-1′(2′H)-yl)methyl)isoxazole] are 47.96 ± 0.01 µM, 22.07 ± 0.01 µM and 2.17.
In the same order, the values of `COc1ccc(-c2cc(CN3CCC(N4CCCC4=O)c4cc(Cl)ccc43)on2)cc1OC` (stereo not drawn) [6n, 5-((6′-chloro-4′-(2′’-oxopyrrolidin-1′’-yl)-3′,4′-dihydroquinolin-1′(2′H)-yl)methyl)-3-(3,4-dimethoxyphenyl)isoxazole] are 24.67 ± 0.01 µM, 8.98 ± 0.01 µM and 2.75.
On to `COc1cc(C2=NOC(CN3CCC(N4CCCC4=O)c4ccccc43)C2)cc(OC)c1OC` (stereo not drawn) [5d, 3-(3,4,5-trimethoxyphenyl)-5-[4-((2′-oxopyrrolidin-1′-yl)-3,4-dihydroquinolin-1(2H)-yl)-methyl]-4,5-dihydroisoxazole], for which the IC50 in experiment [1] (setting [3]) was 13.66 ± 0.01 µM; in experiment [2] (read-out: IC50 AChE) it was 49.82 ± 0.03 µM. The SI in experiment [2] is given as 0.27.
In the case of `CCc1ccc2c(c1)C(N1CCCC1=O)CCN2Cc1cc(-c2ccccc2)no1` (stereo not drawn) [6q, 5-((6′-ethyl-4′-(2′’-oxopyrrolidin-1′’-yl)-3′,4′-dihydroquinolin-1′(2′H)-yl)methyl)-3-phenylisoxazole], the IC50 in experiment [1] (setting [4]) is 108.28 ± 0.01 µM; in experiment [2] (read-out: AChE (IC50)), 75.95 ± 0.04 µM. Further, the SI in experiment [2] is on record as 1.43.
On to `COc1ccc2c3c1O[C@H]1C[C@@H](O)C=C[C@@]31CCN(C)C2` [Galantamine, galantamine, reference compound], for which the IC50 in experiment [1] (setting [3]) and in experiment [1] (setting [4]) was 8.8 ± 0.5 µM each time.
